Experimental data as given in patent publication US20250122219A1 (priority 2023, published 2025).

How the values were obtained:
HIV-1 (IIIB) = experiment: Antiviral assay in MT-4 cells; format: cell-based; settings: Human immunodeficiency virus 1, MT4, 120 h; HIV-1 IIIB in MT-4 cells, 5 days incubation, Cell Titer Glo; read-out: MT4 EC50
How it was run: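 HIV-1 IIIB-infected MT-4 cells (fresh 1:250 virus stock dilution; mock-infected controls) incubated 5 days at 37 °C with serially diluted compounds in RPMI/10% FBS; 5 μM AZT as positive control. Cell viability read by CellTiter-Glo luminescence as measure of protection from viral replication.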

[1] = Cytotoxicity assay in MT-4 cells; format: cell-based; settings: human; uninfected MT-4 cells, 5 days incubation, Cell Titer Glo; read-out: MT4 CC50
How it was run: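 Uninfected MT-4 cells exposed to serially diluted compounds in RPMI with 10% FBS for 5 days at 37 °C. Viability by Cell Titer Glo chemiluminescence. Puromycin […] as baseline cytotoxicity control.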

Question: Which results are given for CCCCCCCCCCCCCCCCOC(=O)Oc1c2n(cc(C(=O)NCc3ccc(F)cc3F)c1=O)[C@@H]1CN(C2=O)[C@@H](C)CC[C@]12CC(C)=NO2 [Example 144, (3′S,5S,7′R)-10′-((2,4-difluorobenzyl)carbamoyl)-3,3′-dimethyl-1′,11′-dioxo-1′,4′,5′,11′-tetrahydro-3′H,4H,7′H-spiro[isoxazole-5,6′-[2,7]methanopyrido[1,2-a][1,4]diazonin]-12′-yl hexadecyl carbonate]?
Answer: EC50 (HIV-1 (IIIB)): 6.9 nM; CC50 at 5 days [1]: ≥ 50000 nM

Question: What does the source list for CCCCCCCCCCCCCCCCOC(=O)Oc1c2n(cc(C(=O)NCc3ccc(F)cc3F)c1=O)[C@@H]1CN(C2=O)[C@@H](C)CC[C@]12CC(OC)=NO2 [Example 145, (3′S,5S,7′R)-10′-((2,4-difluorobenzyl)carbamoyl)-3-methoxy-3′-methyl-1′,11′-dioxo-1′,4′,5′,11′-tetrahydro-3′H,4H,7′H-spiro[isoxazole-5,6′-[2,7]methanopyrido[1,2-a][1,4]diazonin]-12′-yl hexadecyl carbonate]?
Answer: EC50 (HIV-1 (IIIB)): 5.93 nM; CC50 at 5 days [1]: ≥ 50000 nM

Question: With CCCCCCCCCCCCCCCCCCOC(=O)Oc1c2n(cc(C(=O)NCc3ccc(F)cc3F)c1=O)[C@@H]1CN(C2=O)[C@@H](C)CC[C@]12CC(C)=NO2 [Example 146, (3′S,5S,7′R)-10′-((2,4-difluorobenzyl)carbamoyl)-3,3′-dimethyl-1′,11′-dioxo-1′,4′,5′,11′-tetrahydro-3′H,4H,7′H-spiro[isoxazole-5,6′-[2,7]methanopyrido[1,2-a][1,4]diazonin]-12′-yl octadecyl carbonate] as the compound, how does the EC50 (HIV-1 (IIIB)) read?
Answer: 7.56 nM

Question: What about the CC50 at 5 days [1] of the same compound?
Answer: ≥ 50000 nM

Question: With CCCCCCCCCCCCCCCCCCOC(=O)Oc1c2n(cc(C(=O)NCc3ccc(F)cc3F)c1=O)[C@@H]1CN(C2=O)[C@@H](C)CC[C@]12CC(OC)=NO2 [Example 147, (3′S,5S,7′R)-10′-((2,4-difluorobenzyl)carbamoyl)-3-methoxy-3′-methyl-1′,11′-dioxo-1′,4′,5′,11′-tetrahydro-3′H,4H,7′H-spiro[isoxazole-5,6′-[2,7]methanopyrido[1,2-a][1,4]diazonin]-12′-yl octadecyl carbonate] as the compound, how does the EC50 (HIV-1 (IIIB)) read?
Answer: 7.16 nM

Question: And the CC50 at 5 days [1]?
Answer: ≥ 50000 nM

Question: For CC1=NO[C@@]2(CC[C@H](C)N3C[C@H]2n2cc(C(=O)NCc4ccc(F)cc4F)c(=O)c(OC(=O)OCC(C)C)c2C3=O)C1 [Example 148, (3′S,5S,7′R)-10′-((2,4-difluorobenzyl)carbamoyl)-3,3′-dimethyl-1′,11′-dioxo-1′,4′,5′,11′-tetrahydro-3′H,4H,7′H-spiro[isoxazole-5,6′-[2,7]methanopyrido[1,2-a][1,4]diazonin]-12′-yl isobutyl carbonate], which EC50 (HIV-1 (IIIB)) is on record?
Answer: 1.85 nM

Question: What about the CC50 at 5 days [1] of the same compound?
Answer: 16100 nM

Question: What does the source list for COC1=NO[C@@]2(CC[C@H](C)N3C[C@H]2n2cc(C(=O)NCc4ccc(F)cc4F)c(=O)c(OC(=O)OCC(C)C)c2C3=O)C1 [Example 149, (3′S,5S,7′R)-10′-((2,4-difluorobenzyl)carbamoyl)-3-methoxy-3′-methyl-1′,11′-dioxo-1′,4′,5′,11′-tetrahydro-3′H,4H,7′H-spiro[isoxazole-5,6′-[2,7]methanopyrido[1,2-a][1,4]diazonin]-12′-yl isobutyl carbonate]?
Answer: EC50 (HIV-1 (IIIB)): 2.17 nM; CC50 at 5 days [1]: 15900 nM

Question: With CC1=NO[C@@]2(CC[C@H](C)N3C[C@H]2n2cc(C(=O)NCc4ccc(F)cc4F)c(=O)c(OC(=O)OCCC(C)C)c2C3=O)C1 [Example 150, (3′S,5S,7′R)-10′-((2,4-difluorobenzyl)carbamoyl)-3,3′-dimethyl-1′,11′-dioxo-1′,4′,5′,11′-tetrahydro-3′H,4H,7′H-spiro[isoxazole-5,6′-[2,7]methanopyrido[1,2-a][1,4]diazonin]-12′-yl isopentyl carbonate] as the compound, how does the EC50 (HIV-1 (IIIB)) read?
Answer: 0.153 nM

Question: What about the CC50 at 5 days [1] of the same compound?
Answer: 16000 nM

Question: With COC1=NO[C@@]2(CC[C@H](C)N3C[C@H]2n2cc(C(=O)NCc4ccc(F)cc4F)c(=O)c(OC(=O)OCCC(C)C)c2C3=O)C1 [Example 151, (3′S,5S,7′R)-10′-((2,4-difluorobenzyl)carbamoyl)-3-methoxy-3′-methyl-1′,11′-dioxo-1′,4′,5′,11′-tetrahydro-3′H,4H,7′H-spiro[isoxazole-5,6′-[2,7]methanopyrido[1,2-a][1,4]diazonin]-12′-yl isopentyl carbonate] as the compound, how does the EC50 (HIV-1 (IIIB)) read?
Answer: 0.17 nM

Question: And the CC50 at 5 days [1]?
Answer: 18500 nM

Question: For CC1=NO[C@@]2(CC[C@H](C)N3C[C@H]2n2cc(C(=O)NCc4ccc(F)cc4F)c(=O)c(OC(=O)OCCCC(C)C)c2C3=O)C1 [Example 152, (3′S,5S,7′R)-10′-((2,4-difluorobenzyl)carbamoyl)-3,3′-dimethyl-1′,11′-dioxo-1′,4′,5′,11′-tetrahydro-3′H,4H,7′H-spiro[isoxazole-5,6′-[2,7]methanopyrido[1,2-a][1,4]diazonin]-12′-yl (4-methylpentyl) carbonate], which EC50 (HIV-1 (IIIB)) is on record?
Answer: 0.573 nM

Question: What about the CC50 at 5 days [1] of the same compound?
Answer: 14900 nM

Question: What does the source list for COC1=NO[C@@]2(CC[C@H](C)N3C[C@H]2n2cc(C(=O)NCc4ccc(F)cc4F)c(=O)c(OC(=O)OCCCC(C)C)c2C3=O)C1 [Example 153, (3′S,5S,7′R)-10′-((2,4-difluorobenzyl)carbamoyl)-3-methoxy-3′-methyl-1′,11′-dioxo-1′,4′,5′,11′-tetrahydro-3′H,4H,7′H-spiro[isoxazole-5,6′-[2,7]methanopyrido[1,2-a][1,4]diazonin]-12′-yl (4-methylpentyl) carbonate]?
Answer: EC50 (HIV-1 (IIIB)): 0.648 nM; CC50 at 5 days [1]: 23600 nM

Question: Which results are given for CC1=NO[C@@]2(CC[C@H](C)N3C[C@H]2n2cc(C(=O)NCc4ccc(F)cc4F)c(=O)c(OC(=O)OCCCCC(C)C)c2C3=O)C1 [Example 154, (3′S,5S,7′R)-10′-((2,4-difluorobenzyl)carbamoyl)-3,3′-dimethyl-1′,11′-dioxo-1′,4′,5′,11′-tetrahydro-3′H,4H,7′H-spiro[isoxazole-5,6′-[2,7]methanopyrido[1,2-a][1,4]diazonin]-12′-yl (5-methylhexyl) carbonate]?
Answer: EC50 (HIV-1 (IIIB)): 1.72 nM; CC50 at 5 days [1]: 17200 nM

Question: Which results are given for COC1=NO[C@@]2(CC[C@H](C)N3C[C@H]2n2cc(C(=O)NCc4ccc(F)cc4F)c(=O)c(OC(=O)OCCCCC(C)C)c2C3=O)C1 [Example 155, (3′S,5S,7′R)-10′-((2,4-difluorobenzyl)carbamoyl)-3-methoxy-3′-methyl-1′,11′-dioxo-1′,4′,5′,11′-tetrahydro-3′H,4H,7′H-spiro[isoxazole-5,6′-[2,7]methanopyrido[1,2-a][1,4]diazonin]-12′-yl (5-methylhexyl) carbonate]?
Answer: EC50 (HIV-1 (IIIB)): 1.19 nM; CC50 at 5 days [1]: 17500 nM

Question: Which results are given for CC1=NO[C@@]2(CC[C@H](C)N3C[C@H]2n2cc(C(=O)NCc4ccc(F)cc4F)c(=O)c(OC(=O)OCCCCCC(C)C)c2C3=O)C1 [Example 156, (3′S,5S,7′R)-10′-((2,4-difluorobenzyl)carbamoyl)-3,3′-dimethyl-1′,11′-dioxo-1′,4′,5′,11′-tetrahydro-3′H,4H,7′H-spiro[isoxazole-5,6′-[2,7]methanopyrido[1,2-a][1,4]diazonin]-12′-yl (6-methylheptyl) carbonate]?
Answer: EC50 (HIV-1 (IIIB)): 2 nM; CC50 at 5 days [1]: 14700 nM

Question: Which EC50 (HIV-1 (IIIB)) does the source give for COC1=NO[C@@]2(CC[C@H](C)N3C[C@H]2n2cc(C(=O)NCc4ccc(F)cc4F)c(=O)c(OC(=O)OCCCCCC(C)C)c2C3=O)C1 [Example 157, (3′S,5S,7′R)-10′-((2,4-difluorobenzyl)carbamoyl)-3-methoxy-3′-methyl-1′,11′-dioxo-1′,4′,5′,11′-tetrahydro-3′H,4H,7′H-spiro[isoxazole-5,6′-[2,7]methanopyrido[1,2-a][1,4]diazonin]-12′-yl (6-methylheptyl) carbonate] here?
Answer: 2.33 nM

Question: And the CC50 at 5 days [1]?
Answer: 15400 nM
